Key:
Helminthosporium sativum = assay: Agar test (Example 7), Helminthosporium; format: cell-based; conditions: 10 ppm; 5 days at 22° C; control 100
In short: (§1)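 Compound mixed into sterilised 2% malt extract/1.5% agar before solidification at 10 ppm. Plates inoculated with 100 spores of each fungus; colony diameter (mm) measured after five days at 22° C.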

Botrytis cinerea = assay: Agar test (Example 7), Botrytis; format: cell-based; conditions: 10 ppm; 5 days at 22° C; control 100
In short: as §1

[1] = tested on: Colletotrichum gloeosporioides; assay: Agar test (Example 7), Colletotrichum; format: cell-based; conditions: 10 ppm; 5 days at 22° C; control 100
In short: as §1

Pyrenochaeta lycopersici = assay: Control of Pyrenochaeta lycopersici, corky root disease of the tomato, open field (Example 9); format: in vivo; conditions: 10% granulate
Excerpt: Control of Pyrenochaeta lycopersici, corky root disease of the tomato.
On a naturally invested open field area, 2-dichloromethyl-5-methylsulfonyl-1,3,4-thiadiazole was scattered as a 10% granulate formulation and hoed in 20 cm deep. […] After a reaction period of three weeks, tomato plants of the variety "Ronald-M" which were 8 weeks old were set out at a distance from each other of 50 × 70 cm. The harvest results indicated in the table are average values of 40 plants per lot and refer to harvested ripe tomatoes.

Stemphylium ilicis = assay: Agar test (Example 7), Stemphylium; format: cell-based; conditions: 10 ppm; 5 days at 22° C; control 100
In short: as §1

[2] = tested on: Fusarium oxysporum f. callistephi; assay: Fusarium infested compost soil, Callistephus chinesis seedlings (Example 5); format: in vivo; conditions: of 4 seedlings
Excerpt: Steamed compost soil was inoculated with a spore suspension of Fusarium oxysporum f. callistephi. After homogeneous mixture of the products with the infested soil, the products were present as 20% powder preparations, and after a waiting period of 8 days, there were set out per concentration 4 seedlings of Callistephus chinesis, master aster "Sun Ray" as host plants.

Asperqilus niger = assay: Agar test (Example 7), Aspergillus; format: cell-based; conditions: 10 ppm; 5 days at 22° C; control 100
In short: as §1

Damping-off Fungi = assay: Cotton seed disinfection, normal compost soil (Example 6); format: in vivo; conditions: 100 mg active ingr. per kg of seed; 10% formulation; 15 days
Experimental: Cotton seeds disinfected with 10% formulations were seeded in normal compost soil (Damping-off Fungi), 25 grains per concentration. After a cultivation time of 15 days at 22°-25° C, the number of germinated sound cotton seedlings and their weight as fresh plants were determined.

Pythium ultimum [3] = assay: Pythium ultimum infested compost soil, marrow peas (Example 2); format: in vivo; conditions: for Weight of fresh plant: 3 weeks; for Number of sound peas after 3 wks.: of 25 grains
Excerpt: Steamed compost soil was inoculated with mycelium of Pythium ultimum.

Rhizoctonia solani [4] = assay: Rhizoctonia solani infested compost soil, marrow peas (Example 3); format: in vivo; conditions: for Weight of fresh plant: 3 weeks; for Number of sound peas after 3 wks.: of 25 grains
Meloidogyne incognita = assay: Nematocidal action, infested compost soil, cucumber seeds (Example 8); format: in vivo; conditions: 30 days
Experimental: The products as 20% powder preparations were homogeneously admixed with a compost soil heavily infested by root gal nematodes. Without a waiting period, 20 cucumber seeds per concentration were seeded. After a cultivation time of 30 days at a temperature of 23°-25° C, the nematocidal action was evaluated by counting the root galls formed in the waterbath. The following table states the reduction of attack in percent. In the control, an average of 90 root galls per seedling had formed.

Rhizoctonia solani [5] = assay: Limit concentration of soil-fungicidal effectiveness, Rhizoctonia solani, infested soil seeded with peas (Example 1); format: in vivo; conditions: soil, 480 h, 20 to 23 days, 22°-25° C, read-out: Limit concentration of the fungicidal effectiveness
In short: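 Compound mixed homogeneously into steamed compost soil inoculated with Rhizoctonia solani mycelium, and 25 marrow pea seeds ("Miracle of Kelvedon") sown per concentration without a waiting period. Grown 20 to 23 days at 22°-25° C. Limit concentration is the lowest giving sound, necrosis-free roots and at least 90% germination relative to steamed soil.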

Pythium ultimum [6] = assay: Fungistatic and fungicidal action on Pythium ultimum with varying active ingredient percentages (Example 4); format: in vivo
Excerpt: Comparison of the fungistatic and fungicidal action on Pythium ultimum when using preparations with varyng active ingredient percentages on siliceous clay. Steamed compost soil was inoculated with mycelium of Pythium ultimum. After forming a homogeneous mixture of the products with the infested soil, […], the seeding of 25 grains of marrow peas of the variety "Miracle of Kelvedon" per concentration in clay dishes holding 1 liter of soil followed without a waiting period. In the table is stated the fresh number of germinated sound peas, the weight of the fresh plant, and a root evaluation after a cultivation period of three weeks at 22°-25° C.

[7] = 10 g active ingr. per square meter
[8] = 20 g active ingr. per square meter
[9] = 10 mg active ingr. per liter of soil
[10] = 20 mg active ingr. per liter of soil
[11] = 30 mg active ingr. per liter of soil
[12] = 5% formulation, 6 mg active ingr. per liter of soil
[13] = 5% formulation, 10 mg active ingr. per liter of soil
[14] = 10% formulation, 6 mg active ingr. per liter of soil
[15] = 10% formulation, 10 mg active ingr. per liter of soil
[16] = 20% formulation, 6 mg active ingr. per liter of soil
[17] = 20% formulation, 10 mg active ingr. per liter of soil

## CS(=O)(=O)c1nnc(C(Cl)Cl)s1 [Compound 17, 2-dichloromethyl-5-methylsulfonyl-1,3,4-thiadiazole]
Helminthosporium sativum
  diameter of the colonies: 0 mm
Botrytis cinerea
  diameter of the colonies: 0 mm
[1]
  diameter of the colonies: 0 mm
Pyrenochaeta lycopersici; [7]
  Tomatoes per plant, relative to 0 g: 159%
  Weight of single tomato, relative to 0 g: 110%
  Yield per plant, relative to 0 g: 171%
Pyrenochaeta lycopersici; [8]
  Tomatoes per plant, relative to 0 g: 165%
  Weight of single tomato, relative to 0 g: 130%
  Yield per plant, relative to 0 g: 213%
Stemphylium ilicis
  diameter of the colonies: 0 mm
[2]; 50 mg active ingredient per liter of soil
  Number of attacked plants after 3 weeks: 0
[2]; 100 mg active ingredient per liter of soil
  Number of attacked plants after 3 weeks: 0
Asperqilus niger
  diameter of the colonies: 0 mm
Damping-off Fungi
  Sound plants in %: 100%
  Weight of fresh plant: 23 g
Pythium ultimum [3]; [9]
  Weight of fresh plant: 24 g
  Number of sound peas after 3 wks.: 23
Pythium ultimum [3]; [10]
  Weight of fresh plant: 22 g
  Number of sound peas after 3 wks.: 24
Pythium ultimum [3]; [11]
  Weight of fresh plant: 26 g
  Number of sound peas after 3 wks.: 24
Rhizoctonia solani [4]; [9]
  Weight of fresh plant: 0 g
  Number of sound peas after 3 wks.: 0
Rhizoctonia solani [4]; [10]
  Weight of fresh plant: 14 g
  Number of sound peas after 3 wks.: 23
Rhizoctonia solani [4]; [11]
  Weight of fresh plant: 14 g
  Number of sound peas after 3 wks.: 22
Meloidogyne incognita; 40 mg per liter of soil
  Nematocidal action in % (reduction of attack): 90%
Meloidogyne incognita; 60 mg per liter of soil
  Nematocidal action in % (reduction of attack): 94%
Rhizoctonia solani [5]
  minimal effective concentration: 20 µg/mL
Pythium ultimum [6]; [12]
  Number of sound peas after 3 weeks: 12
  Root evaluation (1-4): 1
  Weight of fresh plant: 9 g
Pythium ultimum [6]; [13]
  Number of sound peas after 3 weeks: 24
  Root evaluation (1-4): 4
  Weight of fresh plant: 20 g
Pythium ultimum [6]; [14]
  Number of sound peas after 3 weeks: 24
  Root evaluation (1-4): 1
  Weight of fresh plant: 15 g
Pythium ultimum [6]; [15]
  Number of sound peas after 3 weeks: 22
  Root evaluation (1-4): 4
  Weight of fresh plant: 24 g
Pythium ultimum [6]; [16]
  Number of sound peas after 3 weeks: 22
  Root evaluation (1-4): 2
  Weight of fresh plant: 17 g
Pythium ultimum [6]; [17]
  Number of sound peas after 3 weeks: 24
  Root evaluation (1-4): 4
  Weight of fresh plant: 16 g

— patent US4061645A, “2-Trichloromethyl-5-methylsulfinyl-1,3,4-thiadiazole” (Schering Aktiengesellschaft, priority 1972, dated 1977)
